Test results from ChEMBL document CHEMBL1130760, “Anti-malarial activities of acylated bruceolide derivatives” (Bioorg Med Chem Lett, 1998).
Values joined by “and” are separate entries in the source; they are usually repeats but may differ in a detail not shown here. Identical values can stand only once.

Legend:
[1] = system: FM3A; test: Cytotoxicity against FM3A cells derived from a mammary tumor in mice was evaluated.; assay type: functional, cell-based; settings: Mus musculus
[2] = system: Plasmodium falciparum; test: Anti-malarial activity as growth inhibition of chloroquine-resistant Plasmodium falciparum; assay type: functional, organism-based
[3] = system: FM3A; test: Selective toxicity against Plasmodium falciparum compared to FM3A cytotoxicity; assay type: functional
[4] = system: FM3A; test: […] was evaluated by the percent viability of cells; assay type: functional, Mus musculus

| Structure (SMILES) | EC50 [1] | EC50 ([2]; Plasmodium falciparum) | Ratio [3] | Viability [4] | EC50 [2] |
| --- | --- | --- | --- | --- | --- |
| COC(=O)[C@@]12OC[C@]34[C@H]([C@@H](O)[C@@H]1O)[C@@]1(C)CC(=O)C(OC(=O)/C=C/c5ccccc5)=C(C)[C@@H]1C[C@H]3OC(=O)[C@H](OC(=O)/C=C/c1ccccc1)[C@@H]24 | < 150 nM | 82 nM |  |  |  |
| COC(=O)[C@@]12OC[C@]34[C@H]([C@@H](O)[C@@H]1O)[C@@]1(C)CC(=O)C(O)=C(C)[C@@H]1C[C@H]3OC(=O)[C@H](OC(C)=O)[C@@H]24 [BRUCEINE B] | 8000 nM | 24 nM | 333 |  |  |
| CCC(=O)OC1=C(C)[C@@H]2C[C@H]3OC(=O)[C@H](OC(=O)CC)[C@H]4[C@]5(C(=O)OC)OC[C@]34[C@H]([C@@H](O)[C@@H]5O)[C@@]2(C)CC1=O | 6100 nM | 35 nM | 174 |  |  |
| CCCCCC(=O)OC1=C(C)[C@@H]2C[C@H]3OC(=O)[C@H](O)[C@H]4[C@]5(C(=O)OC)OC[C@]34[C@H]([C@@H](O)[C@@H]5O)[C@@]2(C)CC1=O | 1000 nM | 1000 nM |  |  |  |
| COC(=O)[C@@]12OC[C@]34[C@H]([C@@H](O)[C@@H]1O)[C@@]1(C)CC(=O)C(OC(=O)C(N)Cc5ccccc5)=C(C)[C@@H]1C[C@H]3OC(=O)[C@H](OC(=O)C(N)Cc1ccccc1)[C@@H]24 (some centres undefined) | > 15000 nM | 2800 nM | >5.4 |  |  |
| COC(=O)[C@@]12OC[C@]34[C@H]([C@@H](O)[C@@H]1O)[C@@]1(C)CC(=O)C(OC(=O)C(C)N)=C(C)[C@@H]1C[C@H]3OC(=O)[C@H](OC(=O)C(C)N)[C@@H]24 (some centres undefined) | > 16000 nM | 1000 nM | >16 |  |  |
| CCC(=O)O[C@H]1C(=O)O[C@@H]2C[C@H]3C(C)=C(O)C(=O)C[C@]3(C)[C@H]3[C@@H](O)[C@H](O)[C@@]4(C(=O)OC)OC[C@]32[C@@H]14 | 7000 nM | 29 nM | 241 |  |  |
| CCCCCCCCCCCCCCCC(=O)OC1=C(C)[C@@H]2C[C@H]3OC(=O)[C@H](OC(=O)CCCCCCCCCCCCCCC)[C@H]4[C@]5(C(=O)OC)OC[C@]34[C@H]([C@@H](O)[C@@H]5O)[C@@]2(C)CC1=O |  | 16000 nM |  | 89.9% |  |
| CCCCCCCCCC(=O)OC1=C(C)[C@@H]2C[C@H]3OC(=O)[C@H](O)[C@H]4[C@]5(C(=O)OC)OC[C@]34[C@H]([C@@H](O)[C@@H]5O)[C@@]2(C)CC1=O | 400 nM | > 1000 nM |  |  |  |
| COC(=O)[C@@]12OC[C@]34[C@H]([C@@H](O)[C@@H]1O)[C@@]1(C)CC(=O)C(OC(C)=O)=C(C)[C@@H]1C[C@H]3OC(=O)[C@H](OC(C)=O)[C@@H]24 | 16000 nM | 39 nM | 410 |  |  |
| C/C=C(/C)C(=O)OC1=C(C)[C@@H]2C[C@H]3OC(=O)[C@H](OC(=O)/C(C)=C\C)[C@H]4[C@]5(C(=O)OC)OC[C@]34[C@H]([C@@H](O)[C@@H]5O)[C@@]2(C)CC1=O | 6000 nM | 700 nM | 9 |  |  |
| CCCCCCCCCC(=O)OC1=C(C)[C@@H]2C[C@H]3OC(=O)[C@H](OC(=O)CCCCCCCCC)[C@H]4[C@]5(C(=O)OC)OC[C@]34[C@H]([C@@H](O)[C@@H]5O)[C@@]2(C)CC1=O | < 160 nM | 390 nM |  |  |  |
| COC(=O)[C@@]12OC[C@]34[C@H]([C@@H](O)[C@@H]1O)[C@@]1(C)CC(=O)C(OC(=O)C(N)C(C)C)=C(C)[C@@H]1C[C@H]3OC(=O)[C@H](OC(=O)C(N)C(C)C)[C@@H]24 (some centres undefined) | > 15000 nM | 570 nM | >26 |  |  |
| COC(=O)[C@@]12OC[C@]34[C@H]([C@@H](O)[C@@H]1O)[C@@]1(C)CC(=O)C(O)=C(C)[C@@H]1C[C@H]3OC(=O)[C@H](O)[C@@H]24 [BRUCEOLIDE] | > 21000 nM | 1700 nM | >12.3 |  |  |
| C/C=C(\C)C(=O)OC1=C(C)[C@@H]2C[C@H]3OC(=O)[C@H](OC(=O)/C(C)=C/C)[C@H]4[C@]5(C(=O)OC)OC[C@]34[C@H]([C@@H](O)[C@@H]5O)[C@@]2(C)CC1=O | > 16000 nM |  |  | 100% | > 1000 nM and 16000 nM |
| CCCCCC(=O)OC1=C(C)[C@@H]2C[C@H]3OC(=O)[C@H](OC(=O)CCCCC)[C@H]4[C@]5(C(=O)OC)OC[C@]34[C@H]([C@@H](O)[C@@H]5O)[C@@]2(C)CC1=O | < 170 nM | 98 nM |  |  |  |
| COC(=O)[C@@]12OC[C@]34[C@H]([C@@H](O)[C@@H]1O)[C@@]1(C)CC(=O)C(OC(=O)c5ccccc5)=C(C)[C@@H]1C[C@H]3OC(=O)[C@H](OC(=O)c1ccccc1)[C@@H]24 | 400 nM | > 1000 nM |  |  |  |
